# In US9732075B2, “Benzimidazole-proline derivatives” (IDORSIA PHARMACEUTICALS LTD, priority 2012, dated 2017):
# Tests used:
# [1] = molecular target: human orexin-1 receptor (Homo sapiens (Human), UniProt O43613); experiment: In vitro assay: intracellular calcium measurements (FLIPR), antagonistic activity; format: cell-based; settings: CHO cells expressing human orexin-1 receptor, orexin-A agonist, geometric mean, read-out: IC50 Ox1
# Method in brief: (§1)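 In this FLIPR calcium assay, antagonists were given 120 min on CHO cells with human OX1 or OX2 receptor before orexin-A (3 nM final) was added. Peak fluorescence was measured at 1 s intervals against the uninhibited agonist peak, and IC50s were averaged geometrically.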
# [2] = molecular target: human orexin-2 receptor (Homo sapiens (Human), UniProt O43614); experiment: as above; format: cell-based; settings: CHO cells expressing human orexin-2 receptor, orexin-A agonist, geometric mean, read-out: IC50 Ox2
# Chain of human orexin-2 receptor (O43614 whole entry): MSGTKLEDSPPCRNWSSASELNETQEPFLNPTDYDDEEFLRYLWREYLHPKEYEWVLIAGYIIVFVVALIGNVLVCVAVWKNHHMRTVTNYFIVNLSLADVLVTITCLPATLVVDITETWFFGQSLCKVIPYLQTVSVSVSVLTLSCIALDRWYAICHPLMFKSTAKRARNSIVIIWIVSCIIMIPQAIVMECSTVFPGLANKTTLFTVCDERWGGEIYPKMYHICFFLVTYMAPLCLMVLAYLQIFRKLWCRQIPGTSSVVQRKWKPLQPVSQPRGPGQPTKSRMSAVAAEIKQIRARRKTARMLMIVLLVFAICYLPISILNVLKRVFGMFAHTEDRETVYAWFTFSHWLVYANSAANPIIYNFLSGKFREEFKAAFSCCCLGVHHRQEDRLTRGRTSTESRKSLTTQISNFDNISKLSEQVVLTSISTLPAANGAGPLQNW
# Method in brief: as §1
# Chain of human orexin-1 receptor (O43613 whole entry): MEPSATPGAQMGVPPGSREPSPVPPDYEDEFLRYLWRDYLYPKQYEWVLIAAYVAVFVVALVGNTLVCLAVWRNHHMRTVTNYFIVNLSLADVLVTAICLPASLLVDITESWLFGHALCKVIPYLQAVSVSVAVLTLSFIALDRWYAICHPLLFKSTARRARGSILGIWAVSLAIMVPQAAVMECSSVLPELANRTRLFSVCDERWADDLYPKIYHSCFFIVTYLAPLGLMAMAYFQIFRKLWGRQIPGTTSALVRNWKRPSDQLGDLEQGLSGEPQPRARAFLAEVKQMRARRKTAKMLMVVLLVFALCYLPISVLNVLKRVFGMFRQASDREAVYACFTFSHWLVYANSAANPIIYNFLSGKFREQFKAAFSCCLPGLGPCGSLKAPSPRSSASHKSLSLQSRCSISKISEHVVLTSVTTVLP
Compound,IC50 [1] [nM],IC50 [2] [nM]
C=C1C[C@@H](c2nc3cc(C)c(C)cc3[nH]2)N(C(=O)c2ccc(C)cc2-n2nccn2)C1 [Ex. 6.198],12,3
Cc1nc(C(=O)N2CCCC2c2nc3c(Br)cc(F)cc3[nH]2)c(-c2cccc(Cl)c2)s1 (stereo not shown) [Ex. 1.114],30,74
CSc1ccc2nc([C@@H]3CCCN3C(=O)c3cncnc3-c3ccc(C)c(C)c3)[nH]c2c1 [Ex. 1.53],616,90
CSc1cccc2nc([C@@H]3CCCN3C(=O)c3cncnc3-c3ccc(Cl)c(Cl)c3)[nH]c12 [Ex. 1.82],13,17
CSc1ccc2nc([C@@H]3CCCN3C(=O)c3cc(Cl)ccc3-n3nccn3)[nH]c2c1 [Ex. 1.149],143,9
"(S)-(2-(6-methoxy-1H-benzo[d]imidazol-2-yl)pyrrolidin-1-yl)(5-methyl-2-(2H-1,2,3-triazol-2-yl)phenyl)methanone [Example 1.1]",1500,108
C=C1C[C@@H](c2nc3cccc(C)c3[nH]2)N(C(=O)c2nc(C)sc2-c2ccc(F)cc2)C1 [Ex. 6.106],99,5
C=C1C[C@@H](c2nc3ccc(Cl)c(C)c3[nH]2)N(C(=O)c2nc(C)sc2-c2ccc(F)cc2)C1 [Ex. 6.118],21,4
C=C1C[C@@H](c2nc3cc(C(C)(C)C)ccc3[nH]2)N(C(=O)c2c(-n3nccn3)ccc(C)c2F)C1 [Ex. 6.164],100,9
Cc1nc(C(=O)N2CC[C@H](C)[C@H]2c2nc3c(C)cc(Cl)cc3[nH]2)c(-c2ccc(Cl)cc2)s1 [Ex. 4.94],3,543
C=C1C[C@@H](c2nc3cccc(C)c3[nH]2)N(C(=O)c2nc(C)sc2-c2ccc(Cl)cc2)C1 [Ex. 6.109],112,7
C=C1CC(c2nc3cccc(SC)c3[nH]2)N(C(=O)c2nc(C3CC3)sc2-c2cccc(C)c2)C1 (racemic) [Ex. 6.87],1,2
Cc1nc(C(=O)N2CCC[C@@]2(C)c2nc3c(C)c(C)c(Br)cc3[nH]2)c(-c2ccc(F)cc2)s1 [Ex. 5.276],3,8
Cc1ccc(-c2sccc2C(=O)N2CC[C@H](C)[C@H]2c2nc3c(C(F)(F)F)cccc3[nH]2)cc1C [Ex. 4.160],2,27
CSc1ccc2nc([C@@H]3CCCN3C(=O)c3cc(C#N)ccc3-n3nccn3)[nH]c2c1 [Ex. 1.152],282,23
CO[C@@H]1C[C@@H](c2nc3ccc(Cl)c(C)c3[nH]2)N(C(=O)c2nc(N(C)C)sc2-c2cccc(Cl)c2)C1 [Ex. 3.41],0.7,7
Cc1c(Cl)ccc2[nH]c([C@]3(C)CCCN3C(=O)c3cc(Cl)ccc3-n3nccn3)nc12 [Ex. 5.34],2,9

Compound,IC50 [1] [nM],IC50 [2] [nM]
Cc1nc(C(=O)N2CC[C@H](C)[C@H]2c2nc3c(C(F)(F)F)cccc3[nH]2)c(-c2ccc(C)c(C)c2)s1 [Ex. 4.152],2,40
CSc1ccc2nc([C@@H]3CCCN3C(=O)c3cc(F)ccc3-n3nccn3)[nH]c2c1 [Ex. 1.147],685,24
Cc1ccc(-c2sc(C)nc2C(=O)N2CC[C@H](C)[C@H]2c2nc3c(Cl)cccc3[nH]2)cc1 [Ex. 4.124],8,591
CSc1cccc2nc([C@@H]3CCCN3C(=O)c3cnc(C)nc3-c3ccc(C)c(C)c3)[nH]c12 [Ex. 1.85],5,23
Cc1nc(C(=O)N2CCCC2c2nc3c(C)c(Cl)ccc3[nH]2)c(-c2cccc(Cl)c2)s1 (stereo not shown) [Ex. 1.109],5,10
C=C1C[C@@H](c2nc3cc(Cl)c(C(F)(F)F)cc3[nH]2)N(C(=O)c2cc(C(F)(F)F)ccc2-n2nccn2)C1 [Ex. 6.184],67,73
CSc1ccc2nc([C@@H]3CCCN3C(=O)c3ccccc3-n3nccn3)[nH]c2c1 [Ex. 1.47],446,13
Cc1cc(C)c2nc([C@@H]3CCCN3C(=O)c3nc(C)sc3-c3ccccc3)[nH]c2c1 [Ex. 1.142],24,13
C=C1C[C@@H](c2nc3ccc(Cl)c(C)c3[nH]2)N(C(=O)c2nc(C)sc2-c2ccc(OC)nc2)C1 [Ex. 6.117],19,3
Cc1cc(C(=O)N2CCC[C@@]2(C)c2nc3cc(C)c(C)cc3n2C)c(-n2nccn2)cc1C [Ex. 7.17],4,19
Cc1nc(C(=O)N2CC[C@H](C)[C@H]2c2nc3c(Cl)cccc3[nH]2)c(-c2ccc(Cl)cc2)s1 [Ex. 4.120],14,725
Cc1nc(C(=O)N2CCCC2c2nc3c(Cl)cc(C(F)(F)F)cc3[nH]2)c(-c2ccccc2)s1 (stereo not shown) [Ex. 1.125],39,73
Cc1nc(C(=O)N2CC[C@H](C)[C@H]2c2nc3c(C)c(Cl)ccc3[nH]2)c(-c2ccc(Cl)cc2)s1 [Ex. 4.63],0.8,122
Cc1ccc(-n2cccn2)c(C(=O)N2CC[C@H](C)[C@H]2c2nc3cc(C)c(C)cc3[nH]2)c1 [Ex. 4.83],159,2320
CSc1ccc2nc([C@@H]3CCCN3C(=O)c3c(C)cccc3-n3nccn3)[nH]c2c1 [Ex. 1.154],483,21
Cc1nc(C(=O)N2CC[C@H](C)[C@H]2c2nc3cc(Cl)cc(C)c3[nH]2)c(-c2cccc(Cl)c2)s1 [Ex. 4.28],2,486

# The next lines start with the values.
IC50 [1] [nM],IC50 [2] [nM],Compound
39,19,Cc1ccc2[nH]c([C@]3(C)CCCN3C(=O)c3ccccc3-c3cccc(F)c3)nc2c1C [Ex. 5.116]
4,178,Cc1cc2[nH]c([C@@H]3[C@@H](C)CCN3C(=O)c3cc(Cl)ccc3-c3ccccc3)nc2cc1Cl [Ex. 4.103]
2,13,Cc1cc(C(=O)N2CCC[C@@]2(C)c2nc3cc(C(F)(F)F)ccc3[nH]2)c(-n2nccn2)cc1C [Ex. 5.170]
1480,331,Cc1nc(C(=O)N2CCCC2c2nc3c(CO)cccc3[nH]2)c(-c2ccccc2)s1 (stereo not shown) [Ex. 1.128]
15,45,Cc1ccc(-c2cccnc2)c(C(=O)N2CCC[C@@]2(C)c2nc3ccc(Cl)c(C)c3[nH]2)c1 [Ex. 5.216]
44,10,C=C1C[C@@H](c2nc3cc(Cl)c(C(F)(F)F)cc3[nH]2)N(C(=O)c2ccccc2-n2nccn2)C1 [Ex. 6.178]
13,34,C=C1CN(C(=O)c2nc(C)sc2-c2ccc(OC)cc2)C(C)(c2nc3cc(OC)ccc3[nH]2)C1 (stereo not shown) [Ex. 6.147]
218,91,C=C1CN(C(=O)c2ccccc2-c2ccccc2)C(C)(c2nc3cc(OC)ccc3[nH]2)C1 (stereo not shown) [Ex. 6.150]
1,23,COc1ccc(-n2nccn2)c(C(=O)N2CC[C@H](C)[C@H]2c2nc3c(C)c(Cl)ccc3[nH]2)c1 [Ex. 4.66]
398,66,C=C1C[C@@H](c2nc3cc(OC)ccc3[nH]2)N(C(=O)c2nc(C)sc2-c2ccccc2Cl)C1 [Ex. 6.34]
272,14,C=C1C[C@@H](c2nc3cccc(C)c3[nH]2)N(C(=O)c2cc(OC)ccc2-n2nccn2)C1 [Ex. 6.111]
15,18,Cc1cccc(-c2ccc(C)cc2C(=O)N2CCC[C@@]2(C)c2nc3cc(C)c(C)cc3n2C)c1 [Ex. 7.25]
15,43,COc1ccc(-n2nccn2)c(C(=O)N2CCC[C@@]2(C)c2nc3cc(C(F)(F)F)c(Cl)cc3[nH]2)c1F [Ex. 5.146]
69,92,C=C1C[C@@H](c2nc3cc(OC)ccc3[nH]2)N(C(=O)c2nc(N3CCCC3)sc2-c2cccc(F)c2)C1 [Ex. 6.29]
55,45,Cc1nc(C(=O)N2CCCC2c2nc3cc(C)c(C)cc3[nH]2)c(-c2ccccc2)s1 (stereo not shown) [Ex. 1.122]
17,27,Cc1ccc(-c2ccc(C)cc2C(=O)N2CCC[C@@]2(C)c2nc3cc(C)c(C)cc3[nH]2)cc1 [Ex. 5.100]
1160,19,COc1ccc2[nH]c([C@@H]3CCCN3C(=O)c3c(-n4nccn4)ccc(C)c3F)nc2c1 [Ex. 1.172]
46,507,Cc1ccc(-n2nccn2)c(C(=O)N2CCC[C@@]2(C)c2nc3c(F)c(F)ccc3[nH]2)c1 [Ex. 5.27]
405,388,Cc1ccc(-c2cccc(C)c2C)c(C(=O)N2CCC[C@@]2(C)c2nc3cc(C(F)(F)F)c(Cl)cc3[nH]2)c1 [Ex. 5.161]
148,119,COc1cc2nc([C@]3(C)CCCN3C(=O)c3cnc(C)nc3-c3cccc(C)c3)[nH]c2cc1OC [Ex. 5.89]
91,199,Cc1ccc(-c2cccc(C)c2C)c(C(=O)N2CCC[C@@]2(C)c2nc3cc(C(F)(F)F)ccc3[nH]2)c1 [Ex. 5.196]
13,59,C[C@@]1(c2nc3cc(C(F)(F)F)ccc3[nH]2)CCCN1C(=O)c1cc(Cl)ccc1-n1nccn1 [Ex. 5.166]
21,75,C=C1CN(C(=O)c2nc(C)sc2-c2ccc(C)c(C)c2)C(C)(c2nc3cc(OC)ccc3[nH]2)C1 (racemic) [Ex. 6.145]
22,20,C=C1CC(c2nc3cc(OC)ccc3[nH]2)N(C(=O)c2nc(C3CC3)sc2-c2cccc(C)c2)C1 (racemic) [Ex. 6.86]
39,9270,Cc1ccc(-c2nc(C(=O)N3CCC[C@@]3(C)c3nc4c(C)c(Cl)ccc4[nH]3)c(-c3ccc(F)cc3)s2)cc1C [Ex. 5.254]
120,264,Cc1ccc(-c2ccccc2C)c(C(=O)N2CCC[C@@]2(C)c2nc3cc(C)c(C)cc3[nH]2)c1 [Ex. 5.98]
